Target: T1, HIV protease (Human immunodeficiency virus type 1 group M subtype B, UniProt P12497)
T1 construct: the protease expressed in Eschericia coli; made in house; host or cells: Escherichia coli
Assay: Assay for inhibition of microbial expressed viral protease (peptide substrate cleavage, HPLC quantitation)
Type: biochemical
Details: protease expressed in Eschericia coli; peptide substrate Val-Ser-Gln-Asn-(betanapthyl)Ala-Pro-Ile-Val 0.5 mg/mL; 50 mM Na acetate, pH 5.5, 30°C, 1 hour; read-out: IC₅₀
Procedure: Assay for Inhibition of Microbial Expressed Viral Protease
Inhibition studies of the reaction of the protease expressed in Eschericia coli with a peptide substrate [Val-Ser-Gln-Asn-(betanapthyl)Ala-Pro-Ile-Val, 0.5 mg/mL at the time the reaction is initiated] were in 50 mM Na acetate, pH 5.5, at 30°C for 1 hour. Various concentrations of inhibitor in 1.0 ul DMAO were added to 25 ul of the peptide solution in water. The reaction is initiated by the addition of 15 ul of 0.33 nM protease (0.11 ng) in a solution of 0.133 M Na acetate pH 5.5 and 0.26% bovine serum albumin. The reaction was quenched with 160 ul of 5% phosphoric acid. Products of the reaction were separated by HPLC (VYDAC wide pore 5 cm C-18 reverse phase, acetonitrile gradient, 0.1% phosphoric acid). The extent of inhibition of the reaction was determined from the peak heights of the products.

Q: With `COCCOCCOCCOCCOC(=O)N[C@@H](Cc1ccccc1)[C@@H](O)C[C@@H](Cc1ccccc1)C(=O)N[C@H]1c2ccccc2C[C@H]1O` [Compound A, N-(2(R)-hydroxy-1(S)-indanyl)-5(S)-(3,6,9,12-tetraoxatridecyloxycarbonylamino)-4(S)-hydroxy-2(R)-phenylmethyl-6-phenylhexanamide] as the compound, how does the IC50 read?
A: The IC50 was ~5 nM.

Reference: patent EP0528661A2, “HIV protease inhibitors with N-terminal polyether substituents” (MERCK & CO. INC., priority 1991, dated 1993)
